Test results from PubChem BioAssay (NCI).
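Grown in 96-well plates, cells were treated for 48 hours with each compound at five concentrations. Insufficient inhibition: endpoint recorded as highest concentration tested. GI50: concentration for 50% inhibition of growth. At the TGI there is no net growth.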

Tests used:
Assay in all cases: growth of human tumour cells (NCI), 48 h
[1] = system: EKVX NSCLC
[2] = system: HOP-92 NSCLC
[3] = system: M14 melanoma
[4] = system: MCF7 breast
[5] = system: MDA-MB-231 breast
[6] = system: NCI-H226 lung
[7] = system: OVCAR-5 ovarian
[8] = system: RPMI-8226 leukemia
[9] = system: SK-OV-3 ovarian
[10] = system: SNB-75 CNS

Row | SMILES | GI50 [1] | TGI [1] | GI50 [2] | TGI [2] | GI50 [3] | TGI [3] | GI50 [4] | TGI [4] | GI50 [5] | TGI [5] | GI50 [6] | TGI [6] | GI50 [7] | TGI [7] | GI50 [8] | TGI [8] | GI50 [9] | TGI [9] | GI50 [10] | TGI [10]
1 | Nc1nc(N)c2c(n1)NC(c1ccccc1)C1CCc3ccccc3C1=N2 (centres undefined) | 2.68 µM | 15.1 µM | 2.55 µM | 10.8 µM | 4.88 µM | 18 µM | 3.25 µM | 13.5 µM | 6.02 µM | 20.3 µM | 5.96 µM | 28.9 µM | 14.2 µM | 28 µM | 3.21 µM | 87.1 µM | 10.3 µM | 22.7 µM | 7.95 µM | 20.8 µM
2 | COC(=O)/C=C1/SC(N2N=C(c3cccs3)CC2c2ccc(F)cc2)=NC1=O (centres undefined) | 3.49 µM | 23.6 µM | 2.4 µM | 5.67 µM | 2.25 µM | 5.17 µM | 2.34 µM | 8.06 µM | 2.96 µM | 8.16 µM | 2.24 µM | 6.32 µM | 2.46 µM | 5.21 µM | 2.08 µM | 5.36 µM | 9.78 µM | 53.9 µM | 1.64 µM | 7.28 µM
3 | CCOC(=O)c1oc2ccc([N+](=O)[O-])c3c2c1CCC3 | – | > 100 µM | – | 71 µM | – | > 100 µM | – | > 100 µM | – | > 100 µM | – | > 100 µM | – | > 100 µM | – | > 100 µM | – | > 46.3 µM | – | 33.5 µM
4 | Cn1c2ccccc2c2c3[nH][nH]c(=O)c3c3c4ccccc4[nH]c3c21 | 2.41 µM | 8.1 µM | 3.73 µM | 8.98 µM | 3.05 µM | 10 µM | 1.63 µM | 10.4 µM | 1.39 µM | 46.1 µM | 2.34 µM | 22.6 µM | 4.21 µM | > 100 µM | 2.96 µM | 9.2 µM | 3.46 µM | 64.8 µM | 0.355 µM | 3.53 µM
5 | Cc1ccc(C(SCC(N)C(=O)O)(c2ccccc2)c2ccccc2)cc1 (centres undefined) | 0.21 µM | > 100 µM | 0.288 µM | 73.1 µM | 0.0247 µM | 0.0663 µM | 0.0324 µM | > 79.1 µM | 0.0381 µM | 0.571 µM | 9.29 µM | 42.9 µM | 2.41 µM | > 100 µM | 0.0385 µM | > 100 µM | 0.0748 µM | > 94.7 µM | 0.128 µM | 58.3 µM
6 | N=C(N)c1ccc(NCCOCCNc2ccc(C(=N)N)cc2)cc1 | 21.7 µM | > 100 µM | 15.4 µM | 59.8 µM | 55.4 µM | > 100 µM | 16 µM | > 100 µM | > 100 µM | > 100 µM | 13.3 µM | > 100 µM | > 100 µM | > 100 µM | 22 µM | > 100 µM | 7.86 µM | 51.7 µM | 19.2 µM | 81.3 µM
7 | Cc1cc2nc3cc(C)c(N)cc3[n+](-c3ccccc3)c2cc1N | 2.48 µM | > 100 µM | 3.88 µM | 27.8 µM | 21.2 µM | > 100 µM | 2.48 µM | > 100 µM | 20.5 µM | > 100 µM | 6.23 µM | > 69.4 µM | 46.3 µM | > 100 µM | 4.25 µM | > 100 µM | 24.8 µM | > 100 µM | 2.59 µM | > 100 µM
8 | NC(N)=Nc1nc2ccc([N+](=O)[O-])cc2[nH]1 | – | > 100 µM | – | > 100 µM | – | > 100 µM | – | > 100 µM | – | > 100 µM | – | > 100 µM | – | > 100 µM | – | > 100 µM | – | > 100 µM | – | > 100 µM
9 | CCC(=O)Nc1ccccc1C#C/C=C\C#Cc1ccccc1C(F)(F)F | 1.06 µM | 25.2 µM | 3.01 µM | > 36.1 µM | 2.09 µM | 23.2 µM | 2.61 µM | > 36.1 µM | 3.13 µM | > 29.3 µM | 6.91 µM | > 50 µM | 3.2 µM | > 37 µM | 4.25 µM | > 50 µM | 1.7 µM | > 50 µM | 0.884 µM | 5.85 µM
10 | CCCCN(CCCC)CCC(O)c1cc2c(Cl)cc(Cl)cc2c2cc(C(F)(F)F)ccc12 (centres undefined) | – | 29.1 µM | – | 10.6 µM | – | 23.6 µM | – | 24.9 µM | – | 15.3 µM | – | – | – | 26 µM | – | 28.4 µM | – | 26.9 µM | – | 25.3 µM
11 | CN1CCN(c2nc(NCCCNc3ccnc4cc(Cl)ccc34)c3ccccc3n2)CC1 | 11.4 µM | 25.3 µM | 2.07 µM | 6.43 µM | 1.89 µM | 3.77 µM | 2.37 µM | 13.2 µM | 2.76 µM | 8.94 µM | 18.9 µM | 41.4 µM | 4.17 µM | 19.1 µM | 1.8 µM | 7.69 µM | 6.46 µM | 22.5 µM | 5.45 µM | 20.7 µM
